The values below come from patent publication US6908931B2, “Tetrahydroisoquinoline derivatives as melatonin MT2 antagonists” (Bristol-Myers Squibb Company, priority 2003, dated 2005).

In this assay the target is T1, human MT2 receptor (Homo sapiens, UniProt P49286).
T1 construct: melatonin MT1 and MT2 receptors cDNA were individually subcloned into pcDNA3 and introduced into NIH-3T3 cells using Lipofectamine; expressed in transfected cells
T1 sequence (P49286 1-362): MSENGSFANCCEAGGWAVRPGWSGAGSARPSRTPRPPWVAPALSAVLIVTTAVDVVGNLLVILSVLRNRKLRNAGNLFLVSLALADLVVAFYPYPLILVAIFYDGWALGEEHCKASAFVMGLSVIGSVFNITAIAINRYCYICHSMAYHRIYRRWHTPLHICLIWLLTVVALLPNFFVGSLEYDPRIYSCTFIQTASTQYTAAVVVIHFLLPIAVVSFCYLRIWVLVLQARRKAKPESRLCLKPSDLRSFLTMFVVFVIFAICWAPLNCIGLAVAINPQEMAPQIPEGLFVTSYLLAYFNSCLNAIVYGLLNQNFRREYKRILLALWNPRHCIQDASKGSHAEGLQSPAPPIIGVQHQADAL
Kind of assay: Melatonin receptor binding assay (MT2), 2-[125I]-iodomelatonin. The settings on record: membrane homogenates of NIH-3T3 cells expressing MT2; 2-[125I]-iodomelatonin 0.2 nM; 37° C., 1 hour; read-out: MT2 IC50. The protocol: Melatonin receptor binding assay.
Membrane homogenates: melatonin MT1 and MT2 receptors cDNA were individually subcloned into pcDNA3 and introduced into NIH-3T3 cells using Lipofectamine. […] For preparing membrane homogenates, pellets are thawed on ice, and re-suspended in TME buffer in the presence of 10 μg/ml aprotinin and leupeptin, and 100 μM phenylmethylsulfonylfluoride. The cells were then homogenized using a dounce homogenizer, and centrifuged. The resulting pellet was re-suspended with dounce homogenizer in TME (supplemented with the above protease inhibitors) and frozen. On the day of assay, a small aliquot was thawed on ice and re-suspended in the ice cold TME (1:50-1:100 v/v) and held on ice until assayed. Incubation is at 37° C. for 1 hour. Reaction is terminated by filtration. Filters were washed 3 times.

pIC50: −log10 of the molar value. Where only a bound is given, the exact number is not on record here.

For `CC(C)(C)CC(=O)N1CCc2cc3c(cc2C1CCc1ccc(F)cc1)OCO3` (centres unmarked) [Example 107], the pIC50 was 6.00 to 7.00. As to `COc1cc2c(cc1OC)C(CCc1ccccc1)N(C(=O)C1CCCCC1)CC2` (centres unmarked) [Example 58], the pIC50 was 6.00 to 7.00. As for `COc1cc2c(cc1OC)C(CCc1ccccc1)N(C(=O)Cc1ccccc1)CC2` (centres unmarked) [Example 68], the figure is 6.00 to 7.00; as for `O=C(OCc1ccccc1)N1CCc2cc3c(cc2C1CCc1ccc(Cl)cc1)OCO3` (centres unmarked) [Example 143], 6.00 to 7.00; as for `COc1ccc2c(c1)C(CCc1ccc(F)cc1)N(C(=O)C1CCCC1)CC2` (centres unmarked) [Example 116], over 7.00. As for `COc1ccc(C(CC2c3cc(OC)c(OC)cc3CCN2C(C)=O)c2ccc(OC)cc2)cc1` (centres unmarked) [Example 25], the figure is 6.00 to 7.00; as for `CC(C)COC(=O)N1CCc2cc3c(cc2C1CCc1ccc(F)cc1)OCO3` (centres unmarked) [Example 106], 6.00 to 7.00; as for `COc1cc2c(cc1OC)C(CCc1ccccc1)N(C(=O)CC(C)(C)C)CC2` (centres unmarked) [Example 63], 6.00 to 7.00. The same measure for `COc1ccc2c(c1OC)CCN(C(C)=O)C2CC(c1ccccc1)c1ccccc1` (centres unmarked) [Example 24]: 6.00 to 7.00; for `CCCCCC(=O)N1CCc2cc(Br)c(OC)cc2C1CC(c1ccccc1)c1ccccc1` (centres unmarked) [Example 34]: 6.00 to 7.00; for `COc1cc2c(cc1Br)CCN(C(=O)c1ccc([N+](=O)[O-])cc1)C2CC(c1ccccc1)c1ccccc1` (centres unmarked) [Example 38]: 6.00 to 7.00. As to `CCC(=O)N1CCc2cc(OC)c(OC)cc2C1CCc1cccc(OC)c1` (centres unmarked) [Example 87], the pIC50 was over 7.00.

Consider `COc1cc2c(cc1OC)C(CC(c1ccccc1)c1ccccc1)N(C(=O)C(F)(F)F)CC2` (centres unmarked) [Example 7, N-trifluoroacetyl 1-(2,2-diphenyleth-1-yl)-6,7-dimethoxy-1,2,3,4-tetrahydroisoquinoline], for which the pIC50 is 6.00 to 7.00. Turning to `CC(C)COC(=O)N1CCc2cc3c(cc2C1CCc1ccc(F)cc1)OCC3` (centres unmarked) [Example 135], the pIC50 is 6.00 to 7.00. In the case of `COc1cc2c(cc1OC)C(CCc1ccccc1)N(C(=O)c1cc(C(F)(F)F)cc(C(F)(F)F)c1)CC2` (centres unmarked) [Example 69], the pIC50 was 6.00 to 7.00. The same measure for `COc1ccc2c(c1)C(CC(c1ccccc1)c1ccccc1)N(C(C)=O)CC2` (centres unmarked) [Example 19]: over 7.00; for `COc1cc2c(cc1OC)C(CCc1ccccc1)N(C(=O)c1ccco1)CC2` (centres unmarked) [Example 55]: over 7.00. The same measure for `COc1cccc2c1CCN(C(C)=O)C2CC(c1ccccc1)c1ccccc1` (centres unmarked) [Example 29]: 6.00 to 7.00; for `COc1ccc2c(c1)C(CCc1ccc(F)cc1)N(C(=O)OCc1ccccc1)CC2` (centres unmarked) [Example 114]: 6.00 to 7.00; for `COc1ccc(C(=O)N2CCc3cc4c(cc3C2CCc2ccc(Cl)cc2)OCO4)cc1` (centres unmarked) [Example 141]: 6.00 to 7.00.

`COc1ccc2c(c1)C(CCc1ccc(F)cc1)N(C(=O)c1ccno1)CC2` (centres unmarked) [Example 117]: the pIC50 is over 7.00. Take `COc1cc2c(cc1OC)C(CC(c1ccccc1)c1ccccc1)N(C(=O)c1cccs1)CC2` (centres unmarked) [Example 13]: the pIC50 is 6.00 to 7.00. The same measure for `COc1ccc(C(=O)N2CCc3ccc(OC)cc3C2CCc2ccc(F)cc2)cc1` (centres unmarked) [Example 111]: 6.00 to 7.00.

For the molecule `COc1cc2c(cc1OC)C(CCc1ccccc1)N(C(=O)c1ccc([N+](=O)[O-])cc1)CC2` (centres unmarked) [Example 66], the pIC50 is 6.00 to 7.00. As for `COc1cc2c(cc1OC)C(CC(c1ccccc1)c1ccc(Cl)cc1)N(C(C)=O)CC2` (centres unmarked) [Example 84], the figure is over 7.00.

`COc1cc2c(cc1OC)C(CC(c1ccc(Cl)cc1)c1ccc(Cl)cc1)N(C(C)=O)CC2` (centres unmarked) [Example 85]: the pIC50 is over 7.00. As for `COc1ccc2c(c1)C(CCc1ccc(F)cc1)N(C(=O)OCC(C)C)CC2` (centres unmarked) [Example 120], the figure is 6.00 to 7.00; as for `COc1cc2c(cc1Br)CCN(C(=O)C1CCCCC1)C2CC(c1ccccc1)c1ccccc1` (centres unmarked) [Example 33], 6.00 to 7.00; as for `COc1cc2c(cc1OC)C(CC(c1ccccc1)c1ccccc1)N(C(=O)C1CCCCC1)CC2` (centres unmarked) [Example 44], over 7.00. The same measure for `CC(=O)N1CCc2cc(F)ccc2C1CC(c1ccccc1)c1ccccc1` (centres unmarked) [Example 28]: 6.00 to 7.00; for `COc1cc2c(cc1OC)C(CCc1ccccc1)N(C(N)=O)CC2` (centres unmarked) [Example 16]: 6.00 to 7.00; for `COc1cc2c(cc1OC)C(CCc1ccccc1)N(C(=O)c1ccc(C(F)(F)F)cc1)CC2` (centres unmarked) [Example 70]: 6.00 to 7.00.

Consider `CC(=O)OCC(=O)N1CCc2cc3c(cc2C1CCc1ccc(F)cc1)OCC3` (centres unmarked) [Example 133], for which the pIC50 is 6.00 to 7.00. The same measure for `COc1cc2c(c(OC)c1)C(CC(c1ccccc1)c1ccccc1)N(C(C)=O)CC2` (centres unmarked) [Example 21]: over 7.00; for `CNC(=O)N1CCc2cc(OC)c(OC)cc2C1CC(c1ccccc1)c1ccccc1` (centres unmarked) [Example 9, N-methylcarbamoyl 1-(2,2-diphenyleth-1-yl)-6,7-dimethoxy-1,2,3,4-tetrahydroisoquinoline]: over 7.00.

As for `COc1cc2c(cc1OC)C(CCc1ccccc1)N(C(=O)c1cccc(C)c1)CC2` (centres unmarked) [Example 67], the pIC50 is 6.00 to 7.00. As for `COc1ccc(C(=O)N2CCc3cc(OC)c(OC)cc3C2CCc2ccccc2)cc1` (centres unmarked) [Example 64], the figure is over 7.00; as for `COc1cc2c(cc1OC)C(CCc1ccccc1)N(C(C)=O)CC2` (centres unmarked) [Example 14], over 7.00.

The pIC50 is the negative decadic logarithm of the IC50, by convention in mol/L.
